Laboratory results published in patent publication EP1935986B1, “Luminogenic and fluorogenic compounds and methods to detect molecules or conditions” (priority 2005, dated 2006).

How the values were obtained:
[1] = system: thermostable luciferase (Luc 146-1H2); test: Thermostable luciferase reaction with luciferin derivatives: light readings; format: biochemical
Experimental: (§1) This stock was used to produce enzyme stock solution having of 200 µg/ml enzyme solution in 1 mg/ml BSA, 200 mM HEPES buffer, pH 8.0, 20 mM MgCl2.
(§2) Solutions were made using a 1 M DTT solution, pH adjusted to 8.0, a 20 mM Coenzyme A solution in water (both described in examples above), a 100 mM ATP solution and water to create the following solutions: Sol'A, 100 µM ATP; Sol'B, 100 µM ATP, 4 mM Coenzyme A; Sol'n C, 100 µM ATP, 400 mM DTT, and; Sol'n D, 100 µM ATP, 4 mM Coenzyme A and 400 mM DTT.
The following reactions were prepared (Table 47) Table 47
(§3) After assembly, the reactions were initiated by addition of 25 µl of the thermostable luciferase stock solution above and mixing the tube contents. A 50 µl sample was immediately removed and placed in a luminometer tube and the light read and the tube then replaced in a tube rack at room temperature. While the light reading was being taken, a 5 µl sample of the remaining reaction (which was kept at room temperature) was diluted into 495 µl of 50 mM BisTris, pH 6.5, 1 mg/ml BSA, 1 mM EDTA prechilled to 4°C and the tube mixed and placed on ice. The light produced by the samples in the luminometer tubes were re-read at 20, 40, 60, 90 and 120 minutes post enzyme addition. Additional 5 µl samples were taken and diluted as above at 60 and 120 minutes post enzyme addition. Once all these readings and samples were taken, 50 µl of the diluted samples was mixed with 50 µl of Steady Glo in luminometer tubes, the tubes incubated 10 minutes on ice then the light produced was read on a Turner TD 20/20 luminometer.

[2] = system: thermostable luciferase (Luc 146-1H2); test: Residual thermostable luciferase activity after reaction with luciferin derivatives (Steady Glo); format: biochemical
Experimental: as §1, §2, §3

O=C(O)[C@H]1CSC(c2nc3ccc(OCc4ccccc4)cc3s2)=N1 [L'in-BE]
light readings from the reaction samples ([1]; substrate 6.25 (L'in-BE: 6.26), + Co A & DTT, Time 0 min): 436.9
light readings from the reaction samples ([1]; substrate 6.25 (L'in-BE: 6.26), + Co A & DTT, Time 20 min): 80.41
light readings from the reaction samples ([1]; substrate 6.25 (L'in-BE: 6.26), + Co A & DTT, Time 40 min): 38.47
light readings from the reaction samples ([1]; substrate 6.25 (L'in-BE: 6.26), + Co A & DTT, Time 60 min): 22.83
light readings from the reaction samples ([1]; substrate 6.25 (L'in-BE: 6.26), + Co A & DTT, Time 90 min): 16.08
light readings from the reaction samples ([1]; substrate 6.25 (L'in-BE: 6.26), + Co A & DTT, Time 120 min): 12.01
light readings from the reaction samples ([1]; substrate 6.25 (L'in-BE: 6.26), + Co A, Time 0 min): 2575
light readings from the reaction samples ([1]; substrate 6.25 (L'in-BE: 6.26), + Co A, Time 20 min): 207.1
light readings from the reaction samples ([1]; substrate 6.25 (L'in-BE: 6.26), + Co A, Time 40 min): 83.73
light readings from the reaction samples ([1]; substrate 6.25 (L'in-BE: 6.26), + Co A, Time 60 min): 45.54
light readings from the reaction samples ([1]; substrate 6.25 (L'in-BE: 6.26), + Co A, Time 90 min): 24
light readings from the reaction samples ([1]; substrate 6.25 (L'in-BE: 6.26), + Co A, Time 120 min): 14.42
light readings from the reaction samples ([1]; substrate 6.25 (L'in-BE: 6.26), + DTT, Time 0 min): 455.6
light readings from the reaction samples ([1]; substrate 6.25 (L'in-BE: 6.26), + DTT, Time 20 min): 71.9
light readings from the reaction samples ([1]; substrate 6.25 (L'in-BE: 6.26), + DTT, Time 40 min): 33.73
light readings from the reaction samples ([1]; substrate 6.25 (L'in-BE: 6.26), + DTT, Time 60 min): 21.49
light readings from the reaction samples ([1]; substrate 6.25 (L'in-BE: 6.26), + DTT, Time 90 min): 13.67
light readings from the reaction samples ([1]; substrate 6.25 (L'in-BE: 6.26), + DTT, Time 120 min): 9.847
light readings from the reaction samples ([1]; substrate 6.25 (L'in-BE: 6.26), Alone, Time 0 min): 785.5
light readings from the reaction samples ([1]; substrate 6.25 (L'in-BE: 6.26), Alone, Time 20 min): 62.64
light readings from the reaction samples ([1]; substrate 6.25 (L'in-BE: 6.26), Alone, Time 40 min): 22.11
light readings from the reaction samples ([1]; substrate 6.25 (L'in-BE: 6.26), Alone, Time 60 min): 11.22
light readings from the reaction samples ([1]; substrate 6.25 (L'in-BE: 6.26), Alone, Time 90 min): 5.189
light readings from the reaction samples ([1]; substrate 6.25 (L'in-BE: 6.26), Alone, Time 120 min): 2.995
light readings from the reaction samples ([1]; substrate 25, + Co A & DTT, Time 0 min): 402
light readings from the reaction samples ([1]; substrate 25, + Co A & DTT, Time 20 min): 85.37
light readings from the reaction samples ([1]; substrate 25, + Co A & DTT, Time 40 min): 45.87
light readings from the reaction samples ([1]; substrate 25, + Co A & DTT, Time 60 min): 27.94
light readings from the reaction samples ([1]; substrate 25, + Co A & DTT, Time 90 min): 18.94
light readings from the reaction samples ([1]; substrate 25, + Co A & DTT, Time 120 min): 13.13
light readings from the reaction samples ([1]; substrate 25, + Co A, Time 0 min): 972.4
light readings from the reaction samples ([1]; substrate 25, + Co A, Time 20 min): 127.4
light readings from the reaction samples ([1]; substrate 25, + Co A, Time 40 min): 58.9
light readings from the reaction samples ([1]; substrate 25, + Co A, Time 60 min): 31.96
light readings from the reaction samples ([1]; substrate 25, + Co A, Time 90 min): 17.54
light readings from the reaction samples ([1]; substrate 25, + Co A, Time 120 min): 9.727
light readings from the reaction samples ([1]; substrate 25, + DTT, Time 0 min): 448.6
light readings from the reaction samples ([1]; substrate 25, + DTT, Time 20 min): 84.21
light readings from the reaction samples ([1]; substrate 25, + DTT, Time 40 min): 43.77
light readings from the reaction samples ([1]; substrate 25, + DTT, Time 60 min): 27.21
light readings from the reaction samples ([1]; substrate 25, + DTT, Time 90 min): 18.48
light readings from the reaction samples ([1]; substrate 25, + DTT, Time 120 min): 12.93
light readings from the reaction samples ([1]; substrate 25, Alone, Time 0 min): 623.2
light readings from the reaction samples ([1]; substrate 25, Alone, Time 20 min): 73.96
light readings from the reaction samples ([1]; substrate 25, Alone, Time 40 min): 28.76
light readings from the reaction samples ([1]; substrate 25, Alone, Time 60 min): 13.42
light readings from the reaction samples ([1]; substrate 25, Alone, Time 90 min): 5.528
light readings from the reaction samples ([1]; substrate 25, Alone, Time 120 min): 2.549
light readings from the reaction samples ([1]; substrate 100, + Co A & DTT, Time 0 min): 140.4
light readings from the reaction samples ([1]; substrate 100, + Co A & DTT, Time 20 min): 71.5
light readings from the reaction samples ([1]; substrate 100, + Co A & DTT, Time 40 min): 45.66
light readings from the reaction samples ([1]; substrate 100, + Co A & DTT, Time 60 min): 29.32
light readings from the reaction samples ([1]; substrate 100, + Co A & DTT, Time 90 min): 19.92
light readings from the reaction samples ([1]; substrate 100, + Co A & DTT, Time 120 min): 13.08
light readings from the reaction samples ([1]; substrate 100, + Co A, Time 0 min): 191.9
light readings from the reaction samples ([1]; substrate 100, + Co A, Time 20 min): 63.85
light readings from the reaction samples ([1]; substrate 100, + Co A, Time 40 min): 29.28
light readings from the reaction samples ([1]; substrate 100, + Co A, Time 60 min): 14.78
light readings from the reaction samples ([1]; substrate 100, + Co A, Time 90 min): 6.652
light readings from the reaction samples ([1]; substrate 100, + Co A, Time 120 min): 3.014
light readings from the reaction samples ([1]; substrate 100, + DTT, Time 0 min): 148.7
light readings from the reaction samples ([1]; substrate 100, + DTT, Time 20 min): 77.9
light readings from the reaction samples ([1]; substrate 100, + DTT, Time 40 min): 48.39
light readings from the reaction samples ([1]; substrate 100, + DTT, Time 60 min): 32.26
light readings from the reaction samples ([1]; substrate 100, + DTT, Time 90 min): 21.71
light readings from the reaction samples ([1]; substrate 100, + DTT, Time 120 min): 14.25
light readings from the reaction samples ([1]; substrate 100, Alone, Time 0 min): 160
light readings from the reaction samples ([1]; substrate 100, Alone, Time 20 min): 48.21
light readings from the reaction samples ([1]; substrate 100, Alone, Time 40 min): 19.25
light readings from the reaction samples ([1]; substrate 100, Alone, Time 60 min): 8.305
light readings from the reaction samples ([1]; substrate 100, Alone, Time 90 min): 2.843
light readings from the reaction samples ([1]; substrate 100, Alone, Time 120 min): 1.311
light values obtained upon addition of the diluted reaction samples into Steady Glo reagent ([2]; Substrate 6.25, + Co A & DTT, Time Sample Taken 0 min): 1943
light values obtained upon addition of the diluted reaction samples into Steady Glo reagent ([2]; Substrate 6.25, + Co A & DTT, Time Sample Taken 60 min): 1235
light values obtained upon addition of the diluted reaction samples into Steady Glo reagent ([2]; Substrate 6.25, + Co A & DTT, Time Sample Taken 120 min): 1163
light values obtained upon addition of the diluted reaction samples into Steady Glo reagent ([2]; Substrate 6.25, + Co A, Time Sample Taken 0 min): 1841
light values obtained upon addition of the diluted reaction samples into Steady Glo reagent ([2]; Substrate 6.25, + Co A, Time Sample Taken 60 min): 518.6
light values obtained upon addition of the diluted reaction samples into Steady Glo reagent ([2]; Substrate 6.25, + Co A, Time Sample Taken 120 min): 349.1
light values obtained upon addition of the diluted reaction samples into Steady Glo reagent ([2]; Substrate 6.25, + DTT, Time Sample Taken 0 min): 1860
light values obtained upon addition of the diluted reaction samples into Steady Glo reagent ([2]; Substrate 6.25, + DTT, Time Sample Taken 60 min): 1173
light values obtained upon addition of the diluted reaction samples into Steady Glo reagent ([2]; Substrate 6.25, + DTT, Time Sample Taken 120 min): 1067
light values obtained upon addition of the diluted reaction samples into Steady Glo reagent ([2]; Substrate 6.25, Alone, Time Sample Taken 0 min): 2057
light values obtained upon addition of the diluted reaction samples into Steady Glo reagent ([2]; Substrate 6.25, Alone, Time Sample Taken 60 min): 406.6
light values obtained upon addition of the diluted reaction samples into Steady Glo reagent ([2]; Substrate 6.25, Alone, Time Sample Taken 120 min): 267.7
light values obtained upon addition of the diluted reaction samples into Steady Glo reagent ([2]; Substrate 25, + Co A & DTT, Time Sample Taken 0 min): 1925
light values obtained upon addition of the diluted reaction samples into Steady Glo reagent ([2]; Substrate 25, + Co A & DTT, Time Sample Taken 60 min): 1102
light values obtained upon addition of the diluted reaction samples into Steady Glo reagent ([2]; Substrate 25, + Co A & DTT, Time Sample Taken 120 min): 836.3
light values obtained upon addition of the diluted reaction samples into Steady Glo reagent ([2]; Substrate 25, + Co A, Time Sample Taken 0 min): 1610
light values obtained upon addition of the diluted reaction samples into Steady Glo reagent ([2]; Substrate 25, + Co A, Time Sample Taken 60 min): 277.8
light values obtained upon addition of the diluted reaction samples into Steady Glo reagent ([2]; Substrate 25, + Co A, Time Sample Taken 120 min): 143.2
light values obtained upon addition of the diluted reaction samples into Steady Glo reagent ([2]; Substrate 25, + DTT, Time Sample Taken 0 min): 1675
light values obtained upon addition of the diluted reaction samples into Steady Glo reagent ([2]; Substrate 25, + DTT, Time Sample Taken 60 min): 910.2
light values obtained upon addition of the diluted reaction samples into Steady Glo reagent ([2]; Substrate 25, + DTT, Time Sample Taken 120 min): 738.9
light values obtained upon addition of the diluted reaction samples into Steady Glo reagent ([2]; Substrate 25, Alone, Time Sample Taken 0 min): 1309
light values obtained upon addition of the diluted reaction samples into Steady Glo reagent ([2]; Substrate 25, Alone, Time Sample Taken 60 min): 157.1
light values obtained upon addition of the diluted reaction samples into Steady Glo reagent ([2]; Substrate 25, Alone, Time Sample Taken 120 min): 72.57
light values obtained upon addition of the diluted reaction samples into Steady Glo reagent ([2]; Substrate 100, + Co A & DTT, Time Sample Taken 0 min): 1780
light values obtained upon addition of the diluted reaction samples into Steady Glo reagent ([2]; Substrate 100, + Co A & DTT, Time Sample Taken 60 min): 1016
light values obtained upon addition of the diluted reaction samples into Steady Glo reagent ([2]; Substrate 100, + Co A & DTT, Time Sample Taken 120 min): 778.7
light values obtained upon addition of the diluted reaction samples into Steady Glo reagent ([2]; Substrate 100, + Co A, Time Sample Taken 0 min): 1486
light values obtained upon addition of the diluted reaction samples into Steady Glo reagent ([2]; Substrate 100, + Co A, Time Sample Taken 60 min): 242.2
light values obtained upon addition of the diluted reaction samples into Steady Glo reagent ([2]; Substrate 100, + Co A, Time Sample Taken 120 min): 82.03
light values obtained upon addition of the diluted reaction samples into Steady Glo reagent ([2]; Substrate 100, + DTT, Time Sample Taken 0 min): 1762
light values obtained upon addition of the diluted reaction samples into Steady Glo reagent ([2]; Substrate 100, + DTT, Time Sample Taken 60 min): 952.1
light values obtained upon addition of the diluted reaction samples into Steady Glo reagent ([2]; Substrate 100, + DTT, Time Sample Taken 120 min): 691
light values obtained upon addition of the diluted reaction samples into Steady Glo reagent ([2]; Substrate 100, Alone, Time Sample Taken 0 min): 1245
light values obtained upon addition of the diluted reaction samples into Steady Glo reagent ([2]; Substrate 100, Alone, Time Sample Taken 60 min): 156.4
light values obtained upon addition of the diluted reaction samples into Steady Glo reagent ([2]; Substrate 100, Alone, Time Sample Taken 120 min): 61.75
